Data taken from PubChem BioAssay AID624131 (National Center for Advancing Translational Sciences (NCATS), 2012).

System: mouse liver microsomes, LC-MS/MS half-life
Assay: qHTS Assay to Find Inhibitors of T. brucei phosphofructokinase: Mouse Liver Microsome Stability
Conditions: at 1 µM; stronger effect = higher value

- half-life: 3.85 h
SMILES: O=C(Cc1ccc(Cl)c(Cl)c1)Nc1ccc(S(=O)(=O)Nc2ccon2)cc1
